Assay results published in ChEMBL document CHEMBL1681642, “Synthesis and biological activity of novel MIF antagonists” (Bioorg Med Chem Lett, 2011).

Columns and labels:
[1] = Cytotoxicity against human PBMC assessed as cell viability measured during cytokines production assay at 100 uM after 21 hrs by MTS assay; format: cell-based; settings: PBMC (peripheral blood mononuclear cells)
[2] = molecular target: T1, Macrophage migration inhibitory factor (Homo sapiens) (UniProt P14174); test: Inhibition of human purified MIF tautomerase activity at 10 uM after 30 mins
T1 sequence (whole entry): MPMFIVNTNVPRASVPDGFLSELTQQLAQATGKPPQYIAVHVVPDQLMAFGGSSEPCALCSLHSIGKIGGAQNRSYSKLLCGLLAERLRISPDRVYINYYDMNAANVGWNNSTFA

[3] = molecular target: T1, Macrophage migration inhibitory factor (Homo sapiens); test: Inhibition of MIF in human PBMC assessed as MIF secretion at 100 uM after 5 hrs by ELISA
[4] = system: PBMC; test: Antiinflammatory activity in human PBMC assessed as inhibition of MIF-induced IL-6 production at 100 uM after 21 hrs by ELISA; format: functional
[5] = system: PBMC; test: Antiinflammatory activity in human PBMC assessed as inhibition of MIF-induced IL-6 production at 30 uM after 21 hrs by ELISA; format: functional
[6] = Cytotoxicity against human PBMC assessed as cell viability measured during MIF secretion assay at 100 uM after 21 hrs by MTS assay; format: cell-based; settings: PBMC (peripheral blood mononuclear cells)
[7] = molecular target: T1, Macrophage migration inhibitory factor (Homo sapiens); test: Inhibition of human purified MIF tautomerase activity at 100 uM after 30 mins
[8] = molecular target: T1, Macrophage migration inhibitory factor (Homo sapiens); test: Inhibition of MIF in human PBMC assessed as MIF secretion at 10 uM after 5 hrs by ELISA
[9] = system: PBMC; test: Antiinflammatory activity in human PBMC assessed as inhibition of MIF-induced TNFalpha production at 100 uM after 21 hrs by ELISA; format: functional
[10] = system: PBMC; test: Antiinflammatory activity in human PBMC assessed as inhibition of MIF-induced IL1-beta production at 100 uM after 21 hrs by ELISA; format: functional

inhibition [2] | inhibition [3] | inhibition [7] | inhibition [8] | SMILES | cytotoxicity at 21 h, 100 µM [1] | inhibition at 100 µM [4] | inhibition at 30 µM [5] | cytotoxicity at 21 h, 100 µM [6] | inhibition at 100 µM [9] | inhibition at 100 µM [10]
6% | 2% | 71% | 11% | FC(F)(F)c1cccc(-n2cc(C3=NOC(c4ccccc4)C3)c3ccccc32)c1 (stereo not given) | 8% | 9% | 18% | 0% | 0% | 12%
0% | 36% | 18% | 0% | O=C1CCCN1C1CC(c2ccoc2)=NO1 (stereo not given) | 5% | 49% | 43% | 0% | 28% | 22%
15% | 5% | 100% | 0% | CC(C)(C)C(=O)OC1CC(c2cn(-c3cccc(C(F)(F)F)c3)c3ccccc23)=NO1 (stereo not given) | 15% | 12% | 10% | 0% | 0% | 15%
0% | 51% | 41% | 0% | Fc1ccc(C2CC(c3ccoc3)=NO2)cc1 (stereo not given) | 4% | 15% | 0% | 0% | 0% | 47%
13% | 0% | 66% | 4% | COC(=O)C1(C)CC(c2cn(-c3cccc(C(F)(F)F)c3)c3ccccc23)=NO1 (stereo not given) | 2% | 65% | 25% | 5% | 81% | 89%
10% | 82% | 72% | 38% | COc1ccc(C2CC(c3ccoc3)=NO2)cc1 (stereo not given) | 12% | 0% | 0% | 0% | 2.5% | 13%
4% | 5% | 51% | 20% | FC(F)(F)c1ccc(C2CC(c3cn(-c4cccc(C(F)(F)F)c4)c4ccccc34)=NO2)cc1 (stereo not given) | 6% | 6% | 3% | 0% | 2% | 15%
15% | 60% | 41% | 31% | FC(F)(F)c1ccc(C2CC(c3ccoc3)=NO2)cc1 (stereo not given) | 17% | 50% | 23% | 9% | 76% | 67%
20% | 78% | 56% | 44% | c1cc(C2=NOC(CN3CCOCC3)C2)co1 (stereo not given) | 6% | 49% | 39% | 0% | 0% | 32%
26% | 95% | 100% | 68% | c1ccc2c(c1)ccn2CC1CC(c2ccoc2)=NO1 (stereo not given) | 6% | 6% | 0% | 0% | 30% | 19%
0% | 0% | 91% | 0% | OCCC1CC(c2cn(-c3cccc(C(F)(F)F)c3)c3ccccc23)=NO1 (stereo not given) | 9% | 84% | 60% | 0% | 88% | 88%
10% | 0% | 100% | 0% | FC(F)(F)c1cccc(-n2cc(C3=NOC(CN4CCOCC4)C3)c3ccccc32)c1 (stereo not given) | 10% | 36% | 22% | 65% | 42% | 51%
23% | 0% | 47% | 0% | COC(=O)CC1(C(=O)OC)CC(c2ccoc2)=NO1 (stereo not given) | 8% | 60% | 53% | 7% | 4% | 57%
28% | 22% | 100% | 1% | FC(F)(F)c1cccc(-n2cc(C3=NOC(C4CCCCC4)C3)c3ccccc32)c1 (stereo not given) | 7% | 19% | 4% | 15% | 27% | 43%
17% | 68% | 59% | 37% | c1ccc(C2CC(c3ccoc3)=NO2)cc1 (stereo not given) | 16% | 14% | 5% | 0% | 50% | 31%
0% | 83% | 0% | 49% | O=C1c2ccccc2C(=O)N1C1CC(c2ccoc2)=NO1 (stereo not given) | 12% | 13% | 9% | 0% | 26% | 12%
22% | 0% | 22% | 0% | COC(=O)C1(C)CC(c2ccoc2)=NO1 (stereo not given) | 1% | 11% | 0% | 4% | 30% | 39%
2% | 14% | 17% | 41% | CC1(C(=O)O)CC(c2cn(-c3cccc(C(F)(F)F)c3)c3ccccc23)=NO1 (stereo not given) | 14% | 45% | 18% | 2% | 39% | 54%
3% | 58% | 23% | 39% | OCCC1CC(c2ccoc2)=NO1 (stereo not given) | 10% | 7% | 18% | 0% | 11% | 0%
1% | 0% | 10% | 0% | O=C1CCCN1C1CC(c2cn(-c3cccc(C(F)(F)F)c3)c3ccccc23)=NO1 (stereo not given) | 16% | 52% | 25% | 15% | 68% | 68%
8% | 0% | 47% | 0% | O=C1c2ccccc2C(=O)N1C1CC(c2cn(-c3cccc(C(F)(F)F)c3)c3ccccc23)=NO1 (stereo not given) | 11% | 24% | 6% | 0% | 63% | 43%
23% | 35% | 54% | 13% | c1cc(C2=NOC(C3CCCCC3)C2)co1 (stereo not given) | 1% | 0% | 0% | 6% | 0% | 15%
6% | 10% | 76% | 0% | COC(=O)CC1(C(=O)OC)CC(c2cn(-c3cccc(C(F)(F)F)c3)c3ccccc23)=NO1 (stereo not given) | 2% | 4% | 0% | 0% | 0% | 23%
18% | 21% | 29% | 0% | CC1(C(=O)O)CC(c2ccoc2)=NO1 (stereo not given) | 10% | 7% | 14% | 2% | 32% | 15%
8% | 87% | 59% | 35% | COC(=O)CC1CC(c2ccc(O)cc2)=NO1 (stereo not given) | 10% | 12% | 11% | 8% | 35% | 34%
